Reference: patent publication US6596878B2, “Methods and compositions for inhibiting cell proliferative disorders” (Yissum Research & Development Company of the Hebrew …, priority 1994, dated 2003)
Values joined by “and” are separate entries in the source; they are usually repeats but may differ in a detail not shown here. Equal entries are not always repeated. Where two headings read alike, the source gives them in different places.

How the values were obtained:
[1] = target: T1, HER2 (Homo sapiens, UniProt P04626); assay: HER2-BT474 whole cell kinase ELISA; type: cell-based
T1 construct: the human mammary carcinoma line BT474 (ATCC HTB2) expressing HER2; endogenous in cells; host or cells: BT474 human mammary carcinoma cells
Method: HER2-BT474 assays measuring whole cell HER2 activity was carried out as described below:
All the following steps are at room temperature and aseptically, unless stated otherwise. All ELISA plate washing is by rinsing with distilled water three times and once with TBST.
Incubate the cells in 5% CO2 at 37° C. overnight.
2. ELISA Plate Coating and Blocking

[2] = system: NIH3T3 cells; assay: 3T3 growth assay, NIH3T3C7 control cells; type: cell-based; settings: Mus musculus, NIH3T3, 96 h, Table VI, 10% CS, 4 days
Description: (§1) This example illustrates the ability of the exemplary compounds to inhibit receptor tyrosine kinases, such as HER2 and/or EGFR. The following target cells were used for cellular kinaseassays: NIH3T3 clone C7 (Honegger et al., supra) engineered to over-express human EGF receptor; NIH3T3 cells engineered to over-express a chimeric receptor containing the EGFR extracellular domain and the HER2 intracellular kinase domain; the human mammary carcinoma line BT474 (ATCC HTB2) expressing HER2; and the human glioblastoma line U1242 that expresses PDGFR-β. Growth assays were carried out using human mammary epithelial SKBR3 (ATCC HTB30) cells, SKOV3 (ATCC HTB77) human ovarian cancer cell line, A431 cells, MCF7 human breast carcinoma cells, MCF7 cells overexpress the HER2 kinase (MCF7-HER2), NIH3T3 cells, and NIH3T3 cells overexpressing the HER2 kinase (3T3-HER2).
The 3T3 growth assay was carried out as follows:
(1) Dulbecco's Modified Eagle Medium (D-MEM), Gibco 11965-050;
(4) Fetal Bovine Serum Certified, Gibco 16000-028;
(5) Dulbecco's Phosphate-Buffered Saline (D-PBS), Gibco 14190-029;
(6) Sulforhodamine B (SRB), Sigma S-9012. 0.4% SRB in 1% acetic acid;
(7) 10 mM Tris-base, Fisher BP152-5;
(8) 10% TCA, Trichloroacetic acid, Fisher A322-500;
(9) 96-well flat bottom plate (sterile), Corning 08-757-155;
(10) 100 ml reagent reservoir 9 (sterile), Matrix Technologies Corporation, 8086;
(11) Sterile pipet tips, Fisher 21-197-8E;
NIH3T3C7 cells in 10% CS+2 mM GLN DMEM HER2C7 cells in 2% FBS+2 mM GLN DMEM
(1) HER2C7 (engineered to express HER2) and NIH3T3C7 (as the control) cells are used for this assay. NIH3T3C7 cells are seeded at 2500 cells/well, […] in 10% CS+2 mM GLN DMEM, in a 96 well plate; HER2C7 cells are seeded at 6000 cells/well, 100 μl/well in 2% FBS+2 mM GLN DMEM, in a 96 well plate. Cells are incubated at 37° C., 5% CO2 overnight to allow for cell attachment to the plate;
(2) The test compound is added to the cells at day 2. The compounds are prepared in the appropriate growth medium (10% CS+2 mM) GLN DMEM for NIH3T3C7 cells; 2% FBS+2 mM GLN DMEM for HER2C7 cells) in a 96 well plate, and serially diluted. A total of 100 μl/well medium of the diluted compounds is added into the cells. The total volume of each well is 200 μl. Quadruplicates (wells) and 11 concentration points are applied to each compound tested.
(3) After the cells are treated with the compound for 4 days, the cells are washed with PBS and fixed with 200 μl/well ice-cold 10% TCA for one hour at 0-5° C. condition.
(4) Remove TCA and rinse wells 5 times with deionized water. Dry plates upside down with paper towels. Stain cells with 0.4% SRB at 100 μl/well for 10 minutes.
(5) Pour off SRB and rinse plate 5 times with 1% acetic acid. Dry plate completely.
(6) Solubilize the dye with 10 mM Tris-base at 100 μl/well for 10 minutes on a shaker.
(7) Read the plate at dual wavelengths at 570 nm and 630 nm on Dynatech Elisa plate reader.

[3] = system: MCF7 human breast carcinoma cells; assay: MCF-7 SRB growth assay; type: cell-based; settings: Table VI, 10% FBS, four days
Description: as §1
6. MCF-7 SRB Growth Assay
(§2) MCF-7 cells are seeded at 2000 cells/ well in a 96-well flat bottom plate in normal growth media, which was 10% FBS/RPMI supplemented with 2 mM Glutamine. The plate of cells is incubated for about 24 hours at 37° C. after which it receives an equal volume of compound dilution per well making the total volume per well 200 μl. The compound is prepared at 2 times the desired highest final concentration and serially diluted in the normal growth media in a 96-well round bottom plate and then transferred to plate of cells. DMSO serves as the vector control up to 0.2% as final concentration. The cells are then incubated at 37° C. in a humidified 5% CO2 incubator.
(§3) Four days following dosing of compound, the media is discarded and 200 μl/well of ice-cold 10% TCA (Trichloroacetic Acid) is added to fix cells. After 60 minutes at 4° C., the TCA is discarded and the plate is rinsed 5 times with water. The plate is then air-dried and 100 μl/well of 0.4% SRB (Sulforhodamine B from Sigma) in 1% Acetic Acid is added to stain cells for 10 minutes at room temperature. The SRB is discarded and the plate is rinsed 5 times with 1% Acetic Acid. After the plate is completely dried, 100 μl/well of 10 mM Tris-base is added to solubilize the dye. After 5 to 10 minutes, the plate is read on a Dynatech ELISA Plate Reader at dual wavelengths at 570 nm and 630 nm.

[4] = system: MCF7 cells overexpress the HER2 kinase (MCF7-HER2); assay: MCF-7/HER-2 SRB growth assay; type: cell-based, human; settings: Table VI, 0.5% FBS, four days
Description: as §1, §2, §3
8. MCF-7/HER-2 SRB Growth Assay
The protocol is basically the same as that above (for the MCF-7 Growth Assay) except that immediately before the compound is added, the normal growth media is removed and 0.5% FBS/RPMI supplemented with 2 mM Glutamine is added onto the cells. The compound is also prepared in this 0.5% serum media. The plate of cells is incubated for four days and developed as usual.

[5] = Table V, read-out: Estimated IC50 Cellular Kinase Assays HER2 (BT474)
[6] = Table VI, cellular kinase assay, read-out: HER2-BT474

Molecule	IC50 [1, 5]	IC50 [1, 6] [µM]	IC50 [2] [µM]	IC50 ([3]; Homo sapiens, MCF7, 96 h) [µM]	IC50 ([4]; Homo sapiens, MCF7, 96 h) [µM]	fold greater inhibition of HER2 compared to EGF-R ([1]; as described in Example 1) [fold]	activity in cellular assays ([1]; cellular assays of the Examples, versus analogous compounds having bulkier R1 and R3 groups)	IC50 [3] [µM]	IC50 [4] [µM]
CC(C)(C)c1cc(/C=C(\C#N)C(N)=S)cc(C(C)(C)C)c1O [Compound M11]	< 3 µM	3.1	75	4	0.2	–	–	–	–
N#C/C(=C\c1ccc(O)c(O)c1)C(=S)NCc1ccccc1 [Compound M13]	14 µM	14	–	–	–	≥ 7	–	–	–
N#C/C(=C\c1ccc(O)c(O)c1)C(=O)Nc1cccc(C(F)(F)F)c1 [Compound M15]	16 µM	16	–	15	6	–	–	–	–
N#C/C(=C\c1cc(O)c(O)c(I)c1)C(=O)NCCCc1ccccc1 [Compound M16]	18 µM and 18.2 µM	26	–	–	–	–	–	–	–
CC(C)(C)c1cc(/C=C(\C#N)C(=O)NCCCc2ccccc2)cc(C(C)(C)C)c1O [Compound M20, (E)-3-(3,5-di-t-Butyl-4-hydroxyphenyl)-2-[(3-phenyl-n-propyl)aminocarbonyl]acrylonitrile]	–	3	90	6	0.6	–	–	–	–
CC(C)c1cc(/C=C(\C#N)C(=O)NCCCc2ccccc2)cc(C(C)C)c1O [Compound M21, (E)-3-(3,5-Diisopropyl-4-hydroxyphenyl)-2-[(3-phenyl-n-propyl)aminocarbonyl]acrylonitrile]	–	7.4	> 100	14	2	–	–	–	–
CC(C)c1cc(C=C(C#N)C(N)=C(C#N)C#N)cc(C(C)C)c1O [Compound M22, (E)-2-(1-Amino-2,2-dicyanoethenyl-3-(3,5-diisopropyl-4-hydroxyphenyl)acrylonitrile)]	–	4.2	–	44	9	–	–	–	–
CC(C)c1cc(/C=C(\C#N)C(=S)NCCCc2ccccc2)cc(C(C)C)c1O [Compound M24, (E)-3-(3,5-Diisopropyl-4-hyrdroxyphenyl)-2-[(3-phenyl-n-propyl)aminothiocarbonyl]acrylonitrile]	–	3.1	–	8	1	–	–	–	–
CC(C)c1cc(/C=C(\C#N)S(=O)(=O)c2ccccn2)cc(C(C)C)c1O [Compound M26]	–	9.6	> 100	–	–	–	–	–	–
CC(C)c1cc(/C=C(\C#N)S(=O)(=O)CC#N)cc(C(C)C)c1O [Compound M27]	–	4.6	> 100	33	6	–	–	–	–
CC(C)c1cc(/C=C(\C#N)S(=O)(=O)/C(C#N)=C/c2cc(C(C)C)c(O)c(C(C)C)c2)cc(C(C)C)c1O [Compound M29]	–	1.4	> 100	12	2	–	–	–	–
CC(C)c1cc(/C=C(\C#N)S(=O)(=O)c2ccccc2)cc(C(C)C)c1O [Compound M30]	–	0.65	70	9	2	–	–	–	–
Cc1cc(/C=C(\C#N)S(=O)(=O)c2ccccc2)cc(C)c1O [Compound M31]	–	5.4	> 100	–	–	–	less activity	–	–
Cc1cc(/C=C(\C#N)S(=O)(=O)c2ccccn2)cc(C)c1O [Compound M32]	–	7.3	> 100	–	> 50	–	–	–	–
CC(C)(C)c1cc(/C=C(\C#N)S(=O)(=O)c2ccccc2)cc(C(C)(C)C)c1O [Compound M33, (E)-3-(3,5-di-t-Butyl-4-hydroxyphenyl)-2-(phenylsulfonyl)acrylonitrile]	–	0.17	35	1	0.05	–	–	–	–
CC(C)(C)c1cc(/C=C(\C#N)S(=O)(=O)c2ccccn2)cc(C(C)(C)C)c1O [Compound M34, (E)-3-(3,5-di-t-Butyl-4-hydroxyphenyl)-2-[(pyrid-2-yl)sulfonyl]acrylonitrile]	–	0.11	40	2	0.06	–	–	–	–
CC(C)(C)c1cc(/C=C(\C#N)C(=O)Nc2ccc(C(F)(F)F)cc2)cc(C(C)(C)C)c1O [Compound M35, (E)-3-(3,5-di-t-Butyl-4-hydroxyphenyl)-2-[(4-trifluoromethyl)phenylaminocarbonyl]acrylonitrile]	–	0.29	18	0.3	0.09	–	–	–	–
CC(C)(C)c1cc(/C=C(\C#N)S(=O)(=O)CC#N)cc(C(C)(C)C)c1O [Compound M36, (E)-3-(3,5-di-t-Butyl-4-hydroxyphenyl)-2-(cyanomethylsulfonyl)acrylonitrile]	–	0.4	–	8	2	–	–	–	–
(E,E)-2-[[-Cyano-2-(3,5-diisopropyl-4-hydroxyphenyl)ethenyl]sulfonyl]-3-(3,5-di-t-butyl-4-hydroxyphenyl)acrylonitrile [Compound M37]	–	0.85	–	–	–	–	–	3	1
